≈ marks a conversion by molar mass, not a printed value. Read-outs that look alike come from different tables or passages of the source. Each block holds one compound with its values, some of them ahead of it.
Tests used:
Assay in all cases: MIC, agar dilution, multipoint inoculator
S. aureus = format: cell-based, Staphylococcus aureus; settings: upper value of MIC reading
Method: (§1) This activity was measured using a multipoint inoculator method as follows. The MIC for each compound was measured using an agar dilution method (Onda, H., et al., Int. J. Antimicrob. Agents. 18, 263 (2001)) (Mueller Hinton agar) by means of a multipoint inoculator delivering 10^4 colony forming units per spot.

MRSA = format: cell-based, methicillin-resistant Staphylococcus aureus
Method: as §1
‘Staph’ refers to the reference strain of S. aureus (NCTC 6571). A tick in the MRSA column refers to a positive zone against MRSA strain 96-7474, and the MIC range (in μg/ml) which follows is that found against a panel of ten MRSA strains. Where MIC values are given for MRSA, these are stated as a range of values, as testing was carried out on a panel of clinical isolates.

E. faecium = format: cell-based, Enterococcus faecium; settings: upper value of MIC reading
Method: as §1

S. epidemisis = format: cell-based, Staphylococcus epidermidis; settings: upper value of MIC reading
Method: as §1

E. faecalis = format: cell-based; settings: upper value of MIC reading
Method: as §1

S. aboni = format: cell-based; settings: S. aboni NCTC 6017; upper value of MIC reading
Method: as §1

S. haemolyticus = format: cell-based; settings: S. haemolyticus Isolate 1, upper value of MIC reading
Method: as §1

S. maltophilia = format: cell-based; settings: S. maltophilia NCTC 10257; upper value of MIC reading
Method: as §1

B. bronchiseptica = format: cell-based; settings: B. bronchiseptica NCTC 8344; upper value of MIC reading
Method: as §1

K. pneumoniae = format: cell-based, Klebsiella pneumoniae; settings: K. pneumoniae 327; upper value of MIC reading
Method: as §1

P. auriginosa = format: cell-based, Pseudomonas aeruginosa; settings: P. auriginosa NCTC 6749; upper value of MIC reading
Method: as §1

E. cloacae = format: cell-based, Enterobacter cloacae; settings: E. cloacae NCTC 11582; upper value of MIC reading
Method: as §1

[1] = MRSA Isolate 1, upper value of MIC reading, in µg/mL
[2] = MRSA Isolate 3, upper value of MIC reading, in µg/mL
[3] = MRSA Isolate 4, upper value of MIC reading, in µg/mL
[4] = MRSA Isolate 2, upper value of MIC reading, in µg/mL
[5] = MRSA Isolate 5, upper value of MIC reading, in µg/mL
[6] = MRSA Isolate 6, upper value of MIC reading, in µg/mL
[7] = MRSA Isolate 7, upper value of MIC reading, in µg/mL
[8] = MRSA Isolate 8, upper value of MIC reading, in µg/mL
[9] = MRSA Isolate 9, upper value of MIC reading, in µg/mL
[10] = MRSA Isolate 10, upper value of MIC reading, in µg/mL

MIC (S. aureus; Staphylococcus aureus, 18 h, S. aureus Cowan 1, read-out: MIC): 32 mg/L (≈ 98.6 µM)
MIC (S. aureus; Staphylococcus aureus, NCTC6571, 18 h, S. aureus NCTC 6571, read-out: MIC): 32 mg/L (≈ 98.6 µM)
MIC (S. aureus; Staphylococcus aureus, NCTC10788, 18 h, S. aureus NCTC 10788, read-out: MIC): 64 mg/L (≈ 197 µM)
MIC (MRSA; Staphylococcus aureus, 18 h, MRSA Isolate 1, upper value of MIC reading, read-out: MIC): 32 mg/L (≈ 98.6 µM)
MIC (MRSA; Staphylococcus aureus, 18 h, MRSA Isolate 2, upper value of MIC reading, read-out: MIC): 64 mg/L (≈ 197 µM)
MIC (MRSA; Staphylococcus aureus, 18 h, MRSA Isolate 3, upper value of MIC reading, read-out: MIC): 64 mg/L (≈ 197 µM)
MIC (MRSA; Staphylococcus aureus, 18 h, MRSA Isolate 4, upper value of MIC reading, read-out: MIC): 32 mg/L (≈ 98.6 µM)
MIC (MRSA; Staphylococcus aureus, 18 h, MRSA Isolate 5, upper value of MIC reading, read-out: MIC): 32 mg/L (≈ 98.6 µM)
MIC (MRSA; Staphylococcus aureus, 18 h, MRSA Isolate 6, upper value of MIC reading, read-out: MIC): 32 mg/L (≈ 98.6 µM)
MIC (MRSA; Staphylococcus aureus, 18 h, MRSA Isolate 7, upper value of MIC reading, read-out: MIC): 64 mg/L (≈ 197 µM)
MIC (MRSA; Staphylococcus aureus, 18 h, MRSA Isolate 8, upper value of MIC reading, read-out: MIC): 64 mg/L (≈ 197 µM)
MIC (MRSA; Staphylococcus aureus, 18 h, MRSA Isolate 9, upper value of MIC reading, read-out: MIC): 32 mg/L (≈ 98.6 µM)
MIC (MRSA; Staphylococcus aureus, 18 h, MRSA Isolate 10, upper value of MIC reading, read-out: MIC): 32 mg/L (≈ 98.6 µM)
MIC (MRSA; Staphylococcus aureus, MRSA, 18 h, panel of ten MRSA strains (clinical isolates), read-out: MRSA MIC range): 16 to 64 mg/L (≈ 49.3 to 197 µM)
MIC (E. faecium; Enterococcus faecium, NCTC7171, 18 h, E. faecium NCTC 7171, read-out: MIC): 256 mg/L (≈ 789 µM)
MIC (S. epidemisis; Staphylococcus epidermidis, 18 h, S. epidemisis Isolate 1, read-out: MIC): 128 mg/L (≈ 395 µM)
MIC (S. epidemisis; Staphylococcus epidermidis, NCTC11047, 18 h, S. epidemisis NCTC 11047, read-out: MIC): 256 mg/L (≈ 789 µM)
MIC (E. faecalis; Enterococcus faecalis, 18 h, E. faecalis Isolate 1, read-out: MIC): 256 mg/L (≈ 789 µM)
MIC (E. faecalis; Enterococcus faecalis, 18 h, E. faecalis Isolate 2, read-out: MIC): 256 mg/L (≈ 789 µM)
MIC (E. faecalis; Enterococcus faecalis, 18 h, E. faecalis Isolate 4, read-out: MIC): 256 mg/L (≈ 789 µM)
MIC (E. faecalis; Enterococcus faecalis, 18 h, E. faecalis Isolate 5, read-out: MIC): 256 mg/L (≈ 789 µM)
MIC (S. aboni): 32 mg/L (≈ 98.6 µM)
SMILES: N/C(=N\N=C\c1c2ccccc2cc2ccccc12)c1ccncc1 [Compound 4PYam]
MIC (S. haemolyticus; Staphylococcus haemolyticus, 18 h, read-out: MIC): 256 mg/L (≈ 789 µM)

SMILES: NC(=NN=Cc1c(O)ccc2ccccc12)c1ccncc1 [Compound 4PYdb]
MIC (S. aureus; S. aureus Cowan 1): 128 mg/L (≈ 441 µM)
MIC (S. aureus; S. aureus NCTC 6571): > 256 mg/L
MIC (MRSA; [1]): 128
MIC (MRSA; [2]): 256
MIC (MRSA; [3]): 256
MIC (S. epidemisis; S. epidemisis Isolate 1): 128 mg/L (≈ 441 µM)
MIC (S. epidemisis; S. epidemisis NCTC 11047): 128 mg/L (≈ 441 µM)
MIC (E. faecalis; E. faecalis Isolate 2): 256 mg/L (≈ 882 µM)
MIC (E. faecalis; E. faecalis Isolate 3): 256 mg/L (≈ 882 µM)
MIC (S. haemolyticus): 128 mg/L (≈ 441 µM)
MIC (S. maltophilia): 128 mg/L (≈ 441 µM)

SMILES: NC(=NN=Cc1cc(O)c(O)cc1O)c1ccc2ccccc2n1 [QNcc]
MIC (S. aureus; S. aureus Cowan 1): 256 mg/L (≈ 794 µM)
MIC (S. aureus; S. aureus NCTC 6571): 256 mg/L (≈ 794 µM)
MIC (S. aureus; S. aureus NCTC 10788): 256 mg/L (≈ 794 µM)
MIC (MRSA; [1]): 256
MIC (B. bronchiseptica): 256 mg/L (≈ 794 µM)
MIC (E. faecalis; E. faecalis Isolate 2): 256 mg/L (≈ 794 µM)
MIC (E. faecalis; E. faecalis Isolate 3): 256 mg/L (≈ 794 µM)

SMILES: CN(C)CCCOc1ccc(C=NN=C(N)c2ccc3ccccc3n2)cc1 [QNds]
MIC (S. aureus; S. aureus Cowan 1): 128 mg/L (≈ 341 µM)
MIC (S. aureus; S. aureus NCTC 6571): 128 mg/L (≈ 341 µM)
MIC (S. aureus; S. aureus NCTC 10788): 128 mg/L (≈ 341 µM)
MIC (MRSA; [1]): 64
MIC (MRSA; [4]): 64
MIC (MRSA; [2]): 64
MIC (MRSA; [3]): 64
MIC (MRSA; [5]): 64
MIC (MRSA; [6]): 64
MIC (MRSA; [7]): 64
MIC (MRSA; [8]): 64
MIC (MRSA; [9]): 64
MIC (MRSA; [10]): 64
MRSA MIC range (MRSA; panel of ten MRSA strains (clinical isolates)): 32 to 128 mg/L
MIC (E. faecium; E. faecium ACTCC 10541): 128 mg/L (≈ 341 µM)
MIC (E. faecium; E. faecium NCTC 7171): 64 mg/L (≈ 170 µM)
MIC (S. epidemisis; S. epidemisis Isolate 1): 256 mg/L (≈ 682 µM)
MIC (S. epidemisis; S. epidemisis NCTC 11047): 256 mg/L (≈ 682 µM)
MIC (E. faecalis; E. faecalis EBH1): 128 mg/L (≈ 341 µM)
MIC (E. faecalis; E. faecalis Isolate 1): 128 mg/L (≈ 341 µM)
MIC (E. faecalis; E. faecalis Isolate 2): 128 mg/L (≈ 341 µM)
MIC (E. faecalis; E. faecalis Isolate 3): 128 mg/L (≈ 341 µM)
MIC (E. faecalis; E. faecalis Isolate 4): 128 mg/L (≈ 341 µM)
MIC (E. faecalis; E. faecalis Isolate 5): 64 mg/L (≈ 170 µM)
MIC (E. faecalis; E. faecalis NCTC 5957): 64 mg/L (≈ 170 µM)
MIC (S. haemolyticus): 256 mg/L (≈ 682 µM)
MIC (S. maltophilia): 256 mg/L (≈ 682 µM)

SMILES: O=Cc1cc([N+](=O)[O-])ccc1O [cj]
MIC (S. aureus; S. aureus Cowan 1): 16 mg/L (≈ 95.7 µM)
MIC (S. aureus; S. aureus NCTC 6571): 4 mg/L (≈ 23.9 µM)
MIC (S. aureus; S. aureus NCTC 10788): 2 mg/L (≈ 12 µM)
MIC (MRSA; [1]): 2
MIC (MRSA; [4]): 4
MIC (MRSA; [2]): 2
MIC (MRSA; [3]): 2
MIC (MRSA; [5]): 2
MIC (MRSA; [6]): 4
MIC (MRSA; [7]): 4
MIC (MRSA; [8]): 4
MIC (MRSA; [9]): 4
MIC (MRSA; [10]): 4
MIC (S. epidemisis; S. epidemisis Isolate 1): 2 mg/L (≈ 12 µM)
MIC (S. epidemisis; S. epidemisis NCTC 11047): 2 mg/L (≈ 12 µM)
MIC (B. bronchiseptica): 256 mg/L (≈ 1530 µM)
MIC (E. faecalis; E. faecalis Isolate 1): 256 mg/L (≈ 1530 µM)
MIC (E. faecalis; E. faecalis Isolate 5): 256 mg/L (≈ 1530 µM)
MIC (S. aboni): 1 mg/L (≈ 5.98 µM)
MIC (S. maltophilia): 256 mg/L (≈ 1530 µM)
MIC (K. pneumoniae): 256 mg/L (≈ 1530 µM)
MIC (P. auriginosa): 256 mg/L (≈ 1530 µM)
MIC (E. cloacae): 256 mg/L (≈ 1530 µM)

— patent US20080096894A1, “Anti-Bacterial Compounds” (ASTON UNIVERSITY, priority 2005, published 2008)
